Several values for one entry are separate records, joined by “and”; a condition that tells them apart may be missing. Identical values can stand only once.

Two compounds from publication PMC8113459, “Selective inhibition of cullin 3 neddylation through covalent targeting DCN1 protects mice from acetaminophen-induced liver toxicity” (Nature Communications, 2021) can be followed below.

In one data set the test system is KYSE70 cells. As to the kind of experiment: Cell viability assay (WST-8), KYSE70. It counts as cell-based, human. The note with it: for cell viability relative to control: replicates. The method in brief:
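Cells (2000–3000 per well) were treated with serial dilutions of DCN1 inhibitors for 3 days, then incubated 1–3 h with WST-8 and absorbance read at 450 nm. Growth inhibition was sample-to-control absorbance ratio, with EC50 from fitted curves.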

The test system of data set [1] is APAP-induced liver injury. The data set is described as follows: APAP-induced liver injury: H&E histology of liver. Format: in vivo, mouse. The method, then: (§1) The in vivo studies were performed under animal protocols (PRO00007499) and (PRO00006638) approved by the Institutional Animal Care & Use Committee of the University of Michigan, in accordance with the recommendations in the Guide for the Care and Use of Laboratory Animals of the National Institutes of Health. C57BL/6 WT mice (~8 weeks, male, normal chow) were purchased from the Jackson Laboratory and randomly divided into eight groups (8–9 mice per group) treated (IP) as follows: phosphate-buffered saline vehicle once per day for 3 days (G1), APAP alone a single dose at 400 mg/kg on day 1 (G2), DI-1859 alone 25 mg/kg once per day for 3 days (G3), DI-1859 alone 50 mg/kg once per day for 3 days (G4), pretreatment (1 day before the APAP administration) with DI-1859 at 25 mg/kg once per day for 3 days followed with APAP at 400 mg/kg on day (G5), pretreatment (1 day before the APAP administration) with DI-1859 at 50 mg/kg once per day for 3 days followed with APAP at 400 mg/kg on day (G6), APAP a single dose at 400 mg/kg (3 h before the first DI-1859 administration) followed with DI-1859 at 25 mg/Kg once per day for 3 days (G7), and APAP a single dose at 400 mg/kg (3 h before the first DI-1859 administration) followed with DI-1859 at 50 mg/Kg once per day for 3 days (G8).
(§2) To induce acute liver injury, animals received PBS or APAP (400 mg/kg, sigma, A7085) through I.P. injection at 12 p.m. and were sacrificed 48 h afterward. To examine the protective effect of DI-1859 (groups 5 and 6), animals were I.P. injected with compound for 3 consecutive days (9 a.m. on each day, starting 1 day before APAP administration). To examine the restorative effect of DI-1859 (groups 7 and 8), animals were I.P. injected with compound 3 h after APAP administration followed by two additional treatments (9 a.m. on the next 2 days). Body weight and blood glucose level measurement, along with blood sample collection, were performed at 12 p.m. on each day.
Liver paraffin sections were stained with H&E.

In a further data set the test system is NQO1 mRNA. As to the kind of experiment: RT-PCR, NQO1 mRNA in THLE2 cells. It counts as cell-based, human. The following applies: for NQO1 mRNA level relative to control: THLE2, 10 nM, replicates. As to the method:
Supplementary Figure 23. DI‐1859 increases the mRNA level of NRF2 ta rge te d genes NQO1 and
HO‐1. THLE2 cells we re treated with DI‐1859 at 10 nM fo r 4, 8 and 24 h. Tr e a t e d cells were
harvested and the mRNA level of HO‐1 and NQO1 we re exa m i n e d by RT‐PCR assay. The probes
Scientific (Ann Arbor, MI). Data are presented as mean values with n = 2 independent biological […]

Data set [2] deals with APAP-induced liver injury. The data set is described as follows: APAP-induced liver injury: alanine aminotransferase (ALT) level. It counts as in vivo, mouse. The following applies: for reduction of the elevated ALT level induced by 400 mg/kg of APAP: 24 h time point. As to the method:
as §1, §2
Blood glucose levels were determined using glucometers (Bayer Corp., Pittsburgh, PA). Plasma ALT activity was measured using an ALT reagent set (Pointe Scientific Inc., Canton, MI).

As usually defined, the EC50 is the concentration that produces a half-maximal response. Turning to `C=C(CN1CCOCC1)C(=O)NC[C@@H](NC(=O)[C@H](Cc1nc2ccc(C(C)C)cc2s1)NC(=O)CC)C1CCCCC1` [DI-1548], the EC50 with KYSE70 cells (Homo sapiens, KYSE-70, 72 h, cell line assigned from panel order, read-out: EC50, cell growth inhibition) was greater than 1000 nM. Moreover, the “cell viability relative to control” value with KYSE70 cells (conc 10, 72 h) was 103.349 and 104.463; in the data set on KYSE70 cells (conc 30, 72 h), 98.066 and 96.6942; in the data set on KYSE70 cells (conc 100, 72 h), 94.5283 and 108.512; in the data set on KYSE70 cells (conc 300, 72 h) it was 88.5377 and 82.0661; in the data set on KYSE70 cells (conc 1000, 72 h), 64.6226 and 79.9057 and 54.5868.

`C=C(CN(C)C)C(=O)NC[C@@H](NC(=O)[C@H](Cc1nc2ccc(C(C)C)cc2s1)NC(=O)CC)C1CCCCC1` [DI-1859]: the “liver tissue damage by the compound alone” value in data set [1] (25 and 50 mg/kg qD for 3 days (G3, G4), ALT and histology) is recorded as “caused no liver tissue damage”. Also, the “effect on APAP-induced liver tissue damage (histology)” value in data set [1] (prevention setting, 25 mg/kg) was “largely abolished tissue distortion and greatly reduced acetaminophen-induced tissue damage”; in data set [1] (prevention setting, 50 mg/kg), “near completely prevented APAP-induced liver tissue damage”; in data set [1] (treatment setting, 25 and 50 mg/kg), “significantly reduced the liver damage induced by APAP”. In addition, the “NQO1 mRNA level relative to control” value with NQO1 mRNA (4 h (time from row order and b199)) was 2.3 and 2; in the data set with NQO1 mRNA (8 h (time from row order and b199)) it was 2.7 and 2.6; with NQO1 mRNA (24 h (time from row order and b199)), 19.3 and 16. Moreover, in the data set on NQO1 mRNA (THLE2 liver cells, qRT-PCR), the “increase of NQO1 mRNA level” value is on record as 17 folds. Moreover, the “ALT(IU/L) mean” value amounted to 26.4101 IU/L in data set [2] (G3 PBS + Low, Time 0 hr); 28.0781 IU/L in data set [2] (G3 PBS + Low, Time 24 hr); 28.6341 IU/L in data set [2] (G4 PBS + High, Time 0 hr); 23.9081 IU/L in data set [2] (G4 PBS + High, Time 24 hr); 32.3717 IU/L in data set [2] (G5 APAP + Low-pre, Time 0 hr); 2856 IU/L in data set [2] (G5 APAP + Low-pre, Time 24 hr). The “ALT(IU/L) mean” value is 171.99 IU/L in data set [2] (G5 APAP + Low-pre, Time 48 hr); 30.6419 IU/L in data set [2] (G6 APAP + H-pre, Time 0 hr); 292.828 IU/L in data set [2] (G6 APAP + H-pre, Time 24 hr); 49.2459 IU/L in data set [2] (G6 APAP + H-pre, Time 48 hr); 30.889 IU/L in data set [2] (G7 APAP + Low-post, Time 0 hr); 1341.82 IU/L in data set [2] (G7 APAP + Low-post, Time 24 hr). In addition, the “ALT(IU/L) mean” value is 134.182 IU/L in data set [2] (G7 APAP + Low-post, Time 48 hr); 29.1592 IU/L in data set [2] (G8 APAP + High-post, Time 0 hr); 1771.79 IU/L in data set [2] (G8 APAP + High-post, Time 24 hr); 227.59 IU/L in data set [2] (G8 APAP + High-post, Time 48 hr). In addition, the “reduction of the elevated ALT level induced by 400 mg/kg of APAP” value is 20% in data set [2] (prevention setting (G5), 25 mg/kg); 90% and > 90% in data set [2] (prevention setting (G6), 50 mg/kg). The “reduction of the APAP-induced ALT elevations” value is ~ 50% and 50% in data set [2] (treatment setting (G7), 25 mg/kg after APAP); ~ 50% and 50% in data set [2] (treatment setting (G8), 50 mg/kg after APAP).
